Each structure is given as a SMILES string.

Consider 26 molecules from ChEMBL document CHEMBL1135488, “Prediction of volume of distribution values in humans for neutral and basic drugs using physicochemical measurements and plasma protein binding data” (J Med Chem, 2002).

Data set [1] in a line: Ionisation constant (pKa). The format is physicochemical.
The conditions of data set [2]: pH 7.4.
The nature of data set [3]: clinical. Particulars: human, in vivo, iv; call rule not given here.
A short description of data set [4]: in vitro.
The nature of data set [5]: in vitro. Conditions: human, plasma.
A short description of data set [6]: physchem.

With `CNS(=O)(=O)Cc1ccc2[nH]cc(CCN(C)C)c2c1`, the pKa in data set [1] turned out to be 9.5. For the same molecule, the Fraction ionised in data set [2] turned out to be 0.992. This molecule gave a Vd in data set [3] of 0.65 L/kg. Also, the figures for the fraction unbound in data set [4] (tissues) and in data set [5] were 0.661 and […], respectively.

`COc1ccc2[nH]c([S+]([O-])Cc3ncc(C)c(OC)c3C)nc2c1` (racemic) [OMEPRAZOLE]: in data set [1], the pKa entry is recorded as “Not Active”. This molecule also came in with a Fraction ionised in data set [2] of 0. The same molecule yielded a volume of distribution (Vd) in data set [3] of 0.34 L/kg. The molecule also showed a fraction unbound in data set [4] (tissues) of 0.082.

`CC(=O)Nc1ccc(O)cc1` [ACETAMINOPHEN]: the pKa result in data set [1] is listed as “Not Active”. This molecule came in with a Fraction ionised in data set [2] of 0. In data set [3], this molecule showed a volume of distribution (Vd) of 0.95 L/kg. In addition, the chromatographic logD in data set [6] stood at 0.38. The fraction unbound in data set [4] (tissues) amounted to 0.503; in data set [5], 1.

On to `Oc1ncnc2[nH]ncc12` [ALLOPURINOL], for which the pKa result in data set [1] is on record as “Not Active”. Moreover, in data set [2], the Fraction ionised amounted to 0. The molecule also yielded a Vd in data set [3] of 0.6 L/kg. Also, the results for the fraction unbound in data set [4] (tissues) and in data set [5] were 0.881 and 0.95, respectively.

In the case of `Cc1cc(=O)n(-c2ccccc2)n1C` [ANTIPYRINE], in data set [1], the pKa result is “Not Active”. This molecule also displayed a Fraction ionised in data set [2] of 0. In data set [3], this molecule showed a distribution volume (Vd) of 0.6 L/kg. The molecule also showed a fraction unbound in data set [4] (tissues) of 0.825.

In turn, `CN1CCCC(n2nc(Cc3ccc(Cl)cc3)c3ccccc3c2=O)CC1` (centres undefined) [AZELASTINE] gave a pKa in data set [1] of 9.54. In data set [2], this molecule displayed a Fraction ionised of 0.993. In data set [3], this molecule displayed a volume of distribution (Vd) of 15 L/kg. Further, in data set [6], the chromatographic logD amounted to 1.93. In addition, the results for the fraction unbound in data set [4] (tissues) and in data set [5] were 0.004 and 0.17, respectively.

`O=C1CN=C(c2ccccn2)c2cc(Br)ccc2N1` [BROMAZEPAM]: the pKa entry in data set [1] was “Not Active”. Further, the Fraction ionised in data set [2] worked out at 0. The Vd in data set [3] is 0.91 L/kg. The fraction unbound in data set [4] (tissues) came to 0.146; in data set [5], 0.3.

`CN/C(=N/CCSCc1nc[nH]c1C)NC#N` [CIMETIDINE] showed a pKa in data set [1] of 6.97. Moreover, the Fraction ionised in data set [2] is 0.271. For the same molecule, the distribution volume (Vd) in data set [3] is 1 L/kg. In addition, the fraction unbound in data set [4] turned out to be 0.374; in data set [5] it was 0.81.

`COc1cc2c(c(OC)c1OC)-c1ccc(OC)c(=O)cc1[C@@H](NC(C)=O)CC2` [COLCHICINE] displayed a Fraction ionised in data set [2] of 0. The volume of distribution (Vd) in data set [3] turned out to be 4.2 L/kg. Besides, in data set [6], the chromatographic logD came out at 0.9.

The molecule `CCCCCc1cc(O)c2c(c1)OC(C)(C)[C@@H]1CCC(C)=C[C@@H]21` [DRONABINOL] registered a Fraction ionised in data set [2] of 0. In data set [3], the distribution volume (Vd) amounted to 9.8 L/kg. This molecule returned a chromatographic logD in data set [6] of 6.8. Moreover, the values for the fraction unbound in data set [4] (tissues) and in data set [5] were 0.001 and 0.03, respectively.

Take `CN1C[C@H](C(=O)N[C@]2(C)O[C@@]3(O)[C@@H]4CCCN4C(=O)[C@H](Cc4ccccc4)N3C2=O)C=C2c3cccc4[nH]cc(c34)C[C@H]21` [ERGOTAMINE]: the Fraction ionised in data set [2] is listed as 0.074. The molecule further yielded a Vd in data set [3] of 2.7 L/kg. The chromatographic logD in data set [6] stood at 4.3. Moreover, the fraction unbound in data set [4] (tissues) came out at 0.003; in data set [5], 0.02.

In data set [2], `CCOC(=O)C1=C(C)NC(C)=C(C(=O)OC)C1c1cccc(Cl)c1Cl` (centres undefined) [FELODIPINE] came in with a Fraction ionised of 0. In data set [6], this molecule yielded a chromatographic logD of 4.52.

As to `OC(Cn1cncn1)(Cn1cncn1)c1ccc(F)cc1F` [FLUCONAZOLE], the pKa entry in data set [1] is “Not Active”. For the same molecule, in data set [2], the Fraction ionised is 0. The molecule also had a Vd in data set [3] of 0.6 L/kg. The molecule also returned a fraction unbound in data set [4] (tissues) of 0.814.

As to `CCC(C)n1ncn(-c2ccc(N3CCN(c4ccc(OCC5COC(Cn6cncn6)(c6ccc(Cl)cc6Cl)O5)cc4)CC3)cc2)c1=O` (centres undefined) [ITRACONAZOLE], the pKa result in data set [1] is recorded as “Not Active”. The Fraction ionised in data set [2] is 0. In data set [3], this molecule gave a distribution volume (Vd) of 3.9 L/kg. Moreover, the chromatographic logD in data set [6] is 5.79. The molecule further displayed a fraction unbound in data set [5] of 0.028.

For `Cc1ncc([N+](=O)[O-])n1CCO` [METRONIDAZOLE], the pKa entry in data set [1] is given as “Not Active”. Besides, in data set [2], the Fraction ionised is 0. The Vd in data set [3] amounted to 0.74 L/kg. Further, the fraction unbound in data set [4] (tissues) worked out at 0.609; in data set [5], 0.89.

In the case of `CCc1nn(CCCN2CCN(c3cccc(Cl)c3)CC2)c(=O)n1CCOc1ccccc1` [NEFAZODONE], in data set [1], the pKa was found to be 6.79. Also, the Fraction ionised in data set [2] was 0.197. This molecule had a Vd in data set [3] of 0.51 L/kg. For the same molecule, the chromatographic logD in data set [6] turned out to be 4.83. The fraction unbound in data set [4] (tissues) worked out at 0.008.

In turn, `CN1CCC[C@H]1c1cccnc1` [NICOTINE] came in with a Fraction ionised in data set [2] of 0.834. Besides, in data set [3], the distribution volume (Vd) was determined as 2.6 L/kg. Also, the chromatographic logD in data set [6] turned out to be 0.23. The fraction unbound in data set [4] stood at 0.15.

`CN/C(=C\[N+](=O)[O-])NCCSCc1csc(CN(C)C)n1` [NIZATIDINE] displayed a pKa in data set [1] of 6.59. Further, the Fraction ionised in data set [2] was found to be 0.134. The same molecule displayed a volume of distribution (Vd) in data set [3] of 1.2 L/kg. Moreover, the figures for the fraction unbound in data set [4] (tissues) and in data set [5] were 0.0289 and 0.78, respectively.

Consider `CC(=O)O[C@H]1C(=O)[C@@]2(C)[C@H]([C@H](OC(=O)c3ccccc3)[C@]3(O)C[C@H](OC(=O)[C@H](O)[C@@H](NC(=O)c4ccccc4)c4ccccc4)C(C)=C1C3(C)C)[C@]1(OC(C)=O)CO[C@@H]1C[C@@H]2O` [PACLITAXEL], for which the Fraction ionised in data set [2] is on record as 0. This molecule displayed a Vd in data set [3] of 2.4 L/kg. This molecule also had a chromatographic logD in data set [6] of 4.45. For the same molecule, the figures for the fraction unbound in data set [4] and in data set [5] were 0.005 and 0.03, respectively.

On to `C[C@]12C=CC(=O)C=C1CC[C@@H]1[C@@H]2C(=O)C[C@@]2(C)[C@H]1CC[C@]2(O)C(=O)CO` [PREDNISONE], for which the Fraction ionised in data set [2] amounted to 0. In addition, the Vd in data set [3] worked out at 0.97 L/kg. Further, the fraction unbound is 0.113 in data set [4] (tissues) and 0.25 in data set [5].

Molecule `CCN(CC)CCCC(C)Nc1c2ccc(Cl)cc2nc2ccc(OC)cc12` (centres undefined) [QUINACRINE] showed a pKa in data set [1] of 10.2. For the same molecule, the Vd in data set [3] was 223 L/kg. For the same molecule, the chromatographic logD in data set [6] is 1.1. This molecule also returned a fraction unbound in data set [5] of 0.103.

In data set [1], `CNC(=C[N+](=O)[O-])NCCSCc1ccc(CN(C)C)o1` [RANITIDINE] had a pKa of 8.47. This molecule came in with a Fraction ionised in data set [2] of 0.922. In data set [3], the Vd is 1.3 L/kg. In addition, in data set [4] (tissues), the fraction unbound was 0.289.

The molecule `C#CCCCC(=O)c1cc(C(C)(C)C)c(O)c(C(C)(C)C)c1` [TEBUFELONE] gave a Fraction ionised in data set [2] of 0. Further, the Vd in data set [3] was 31 L/kg. The molecule further displayed a chromatographic logD in data set [6] of 5.56. The fraction unbound was 8e-06 in data set [4] (tissues) and 0.00067 in data set [5].

Turning to `Cc1ccc(O)c([C@H](CCN(C(C)C)C(C)C)c2ccccc2)c1` [TOLTERODINE], in data set [1], the pKa stood at 9.87. The same molecule yielded a Fraction ionised in data set [2] of 0.997. Further, in data set [3], the volume of distribution (Vd) amounted to 1.3 L/kg. The chromatographic logD in data set [6] is 1.04. This molecule came in with a fraction unbound in data set [4] (tissues) of 0.012.

In data set [1], `O=c1n(CCCN2CCN(c3cccc(Cl)c3)CC2)nc2ccccn12` [TRAZODONE] came in with a pKa of 6.79. In data set [2], this molecule showed a Fraction ionised of 0.197. In data set [3], this molecule registered a Vd of 1 L/kg. In addition, the fraction unbound in data set [4] (tissues) turned out to be 0.03; in data set [5], 0.07.

For the molecule `COc1cc(Cc2cnc(N)nc2N)cc(OC)c1OC` [TRIMETHOPRIM], in data set [2], the Fraction ionised is on record as 0.319. Moreover, the Vd in data set [3] turned out to be 1.6 L/kg. Moreover, the fraction unbound was 0.166 in data set [4] and 0.63 in data set [5].
